From ChEMBL document CHEMBL2057194, “Structure-activity relationships, ligand efficiency, and lipophilic efficiency profiles of benzophenone-type inhibitors of the multidrug transporter P-glycoprotein” (J Med Chem, 2012)

Biological target: ATP-dependent translocase ABCB1 (Homo sapiens, UniProt P08183)
Assay: Inhibition of P-glycoprotein-mediated daunorubicin efflux from human CCRF-CEM/VCR1000 cells after 240 secs by FACS flow cytometric analysis

Chain of ATP-dependent translocase ABCB1 (P08183 whole entry): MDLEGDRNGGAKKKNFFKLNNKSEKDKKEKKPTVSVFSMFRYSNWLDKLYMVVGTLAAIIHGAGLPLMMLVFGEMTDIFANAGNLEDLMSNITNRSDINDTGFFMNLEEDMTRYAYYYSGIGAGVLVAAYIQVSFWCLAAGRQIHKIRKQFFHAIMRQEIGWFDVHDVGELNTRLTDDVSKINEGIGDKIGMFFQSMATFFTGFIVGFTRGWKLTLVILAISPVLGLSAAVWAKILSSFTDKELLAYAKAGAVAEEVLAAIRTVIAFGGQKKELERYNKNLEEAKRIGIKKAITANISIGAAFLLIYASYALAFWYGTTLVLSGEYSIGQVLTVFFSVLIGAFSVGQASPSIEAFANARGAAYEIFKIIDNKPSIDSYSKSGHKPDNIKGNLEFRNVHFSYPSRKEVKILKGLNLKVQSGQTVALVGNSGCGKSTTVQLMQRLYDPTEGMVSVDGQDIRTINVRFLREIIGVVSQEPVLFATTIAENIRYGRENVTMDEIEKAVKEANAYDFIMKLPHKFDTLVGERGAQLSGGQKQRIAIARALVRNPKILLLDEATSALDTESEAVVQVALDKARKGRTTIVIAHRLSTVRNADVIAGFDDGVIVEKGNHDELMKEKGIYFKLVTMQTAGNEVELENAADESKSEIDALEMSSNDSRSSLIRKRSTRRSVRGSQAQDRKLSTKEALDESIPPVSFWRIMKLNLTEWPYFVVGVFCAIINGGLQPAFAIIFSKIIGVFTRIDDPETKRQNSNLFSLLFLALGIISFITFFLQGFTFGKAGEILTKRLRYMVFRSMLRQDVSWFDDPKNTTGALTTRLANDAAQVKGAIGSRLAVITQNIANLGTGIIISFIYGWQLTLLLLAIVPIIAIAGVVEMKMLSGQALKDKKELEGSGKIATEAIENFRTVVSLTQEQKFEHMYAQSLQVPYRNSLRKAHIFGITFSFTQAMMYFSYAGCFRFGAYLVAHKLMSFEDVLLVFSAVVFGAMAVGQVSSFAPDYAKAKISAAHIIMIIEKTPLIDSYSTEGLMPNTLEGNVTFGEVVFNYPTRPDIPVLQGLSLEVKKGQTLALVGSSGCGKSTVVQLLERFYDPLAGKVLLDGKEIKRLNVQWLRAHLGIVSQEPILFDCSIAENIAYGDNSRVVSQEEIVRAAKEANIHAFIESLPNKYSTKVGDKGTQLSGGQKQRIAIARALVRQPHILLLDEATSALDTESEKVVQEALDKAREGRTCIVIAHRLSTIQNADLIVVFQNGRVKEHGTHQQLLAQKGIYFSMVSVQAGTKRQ

Compound	IC50 (read-out: IC50) [nM]	IC50 (read-out: pIC50 (converted)) [nM]
O=C(c1ccccc1)c1ccccc1OCC(O)CN1CCC(O)(c2ccccc2)CC1 (configuration not stated)	310	–
O=C(c1ccccc1)c1ccccc1OCC(O)CN1CCN(c2ccc(F)cc2)CC1 (configuration not stated)	150	–
O=C(c1ccccc1)c1ccc(OCC(O)CN2CCOCC2)cc1 (configuration not stated)	5320	–
O=C(c1ccccc1)c1ccc(OCC(O)CN2CCCCC2)cc1 (configuration not stated)	2180	–
O=C(c1ccccc1)c1ccccc1OCC(O)CN1CCOCC1 (configuration not stated)	13400	–
Cc1cccc(N2CCN(CC(O)COc3cccc(C(=O)c4ccccc4)c3)CC2)c1C (configuration not stated)	170	–
Cc1cccc(N2CCN(CC(O)COc3ccc(C(=O)c4ccccc4)cc3)CC2)c1C (configuration not stated)	650	–
O=C(c1ccccc1)c1cccc(OCC(O)CN2CCN(c3ccc(F)cc3)CC2)c1 (configuration not stated)	580	–
O=C(c1ccccc1)c1ccc(OCC(O)CN2CCN(c3ccc(F)cc3)CC2)cc1 (configuration not stated)	970	–
O=C(c1ccccc1)c1ccccc1OCC(O)CN1CCCCC1 (configuration not stated)	1200	–
O=C(c1ccccc1)c1cccc(OCC(O)CN2CCCCC2)c1 (configuration not stated)	3550	–
Cc1ccccc1N1CCN(CC(O)COc2cccc(C(=O)c3ccccc3)c2)CC1 (configuration not stated)	200	–
Cc1ccccc1N1CCN(CC(O)COc2ccc(C(=O)c3ccccc3)cc2)CC1 (configuration not stated)	500	–
CCCNCC(O)COc1ccccc1C(=O)c1ccc(C)cc1 (configuration not stated)	1210	–
Cc1ccc(NC(=O)N2CCN(CC(O)COc3ccccc3C(=O)c3ccccc3)CC2)cc1 (configuration not stated)	480	–
Cc1ccc(NC(=S)N2CCN(CC(O)COc3ccccc3C(=O)c3ccccc3)CC2)cc1 (configuration not stated)	380	–
O=C(c1ccccc1)c1ccccc1OCC(O)CN1CCN(CC(O)COc2ccccc2C(=O)c2ccccc2)CC1 (configuration not stated)	50	–
CC(=O)c1cc(C)ccc1OCC(O)CN1CCN(CC(O)COc2ccccc2C(=O)c2ccccc2)CC1 (configuration not stated)	9480	–
CCOC/C=C/c1ccc(-c2nc(-c3ccc(NC(C)C)cc3)c(-c3ccc(NC(C)C)cc3)[nH]2)cc1	–	31.6
O=C(CCc1ccccc1)c1ccccc1OCC(O)CN1CCCCC1 (configuration not stated)	–	603
O=C(CCc1ccccc1)c1ccccc1OCC(O)CN1CCC(O)(c2ccccc2)CC1 (configuration not stated)	–	57.5
COc1cc2c(cc1OC)CN(CCc1ccc(NC(=O)c3cc(OC)c(OC)cc3NC(=O)c3cnc4ccccc4c3)cc1)CC2	–	33.1
